Results as given in patent US8987473B2, “Ring-fused compound” (Sato Pharmaceutical Co., Ltd., priority 2011, dated 2015).

Target: human URAT1 (Homo sapiens (Human), UniProt Q96S37)
Experiment: Test for uric acid transport inhibition using human URAT1 expression cell
Format: cell-based
Conditions: human URAT1 stable expression CHO cell; 14C-labeled uric acid 38 μM final concentration; incorporation at room temperature for 5 minutes; 100% window defined with benzbromarone 100 μM; read-out: URAT1 Inhibitory Activity (IC50)
Experimental: In this Example, it was evaluated whether the Example compound has the URAT1 inhibitory activity.
Human URAT1 full-length cDNA was introduced to an expression vector pcDNA5/FRT/V5-His TOPO (registered trademark) (Invitrogen Corporation). The obtained expression plasmid was introduced to Chinese hamster ovary cell (hereinafter referred to as the CHO cell) by the liposome method using Lipofectamine LTX (Invitrogen), and cultured in a selection medium including hygromycin, whereby to prepare human URAT1 stable expression cell.
The human URAT1 expression CHO cell was cultured using D-MEM/F-12 (1:1) mixed medium including 10% bovine fetal serum and hygromycin at 37° C. in the presence of 5% CO2. The cells were seeded onto a 96 well plate (Corning Incorporated) in 0.8×10^5 cells/well, and after 24 hours, the test for uric acid transport inhibition below was performed.
The medium was removed by aspiration, and then the cells were washed once with an assay buffer including 125 mM of sodium gluconate, 4.8 mM of potassium gluconate, 1.2 mM of potassium dihydrogen phosphate, 1.2 mM of magnesium sulfate, 1.3 mM of calcium gluconate and 5.6 mM of glucose. 50 μL assay buffer including the test compound in various concentrations was added, and further 50 μL assay buffer including a radioactive ligand (uric acid labeled with ^14C; 38 μM final concentration) was added, and incorporation reaction was performed at room temperature for 5 minutes. Immediately after completion of the reaction, the reaction mixture was washed twice with 100 μL ice-cold assay buffer, and 100 μL of 0.1 N sodium hydroxide was added. The reaction mixture was stirred to lyse the cells, and 4 mL Hionic-Fluor (Packard BioScience CO) was added, and then the radioactivity was measured with a liquid scintillation counter (Beckman Coulter, Inc. and Packard BioScience CO).
The radioactivity when each concentration of the test compound was added (uric acid incorporation activity, %) was calculated in which the difference of the radioactivity when the test compound was not added (DMSO added), and the radioactivity when a positive control compound, benzbromarone (known URAT1 inhibitor) was added in 100 μM, was taken as 100%, and the concentration of the test compound when the uric acid incorporation activity was inhibited to 50% (IC50) was obtained.

Sequence of human URAT1 (Q96S37 whole entry): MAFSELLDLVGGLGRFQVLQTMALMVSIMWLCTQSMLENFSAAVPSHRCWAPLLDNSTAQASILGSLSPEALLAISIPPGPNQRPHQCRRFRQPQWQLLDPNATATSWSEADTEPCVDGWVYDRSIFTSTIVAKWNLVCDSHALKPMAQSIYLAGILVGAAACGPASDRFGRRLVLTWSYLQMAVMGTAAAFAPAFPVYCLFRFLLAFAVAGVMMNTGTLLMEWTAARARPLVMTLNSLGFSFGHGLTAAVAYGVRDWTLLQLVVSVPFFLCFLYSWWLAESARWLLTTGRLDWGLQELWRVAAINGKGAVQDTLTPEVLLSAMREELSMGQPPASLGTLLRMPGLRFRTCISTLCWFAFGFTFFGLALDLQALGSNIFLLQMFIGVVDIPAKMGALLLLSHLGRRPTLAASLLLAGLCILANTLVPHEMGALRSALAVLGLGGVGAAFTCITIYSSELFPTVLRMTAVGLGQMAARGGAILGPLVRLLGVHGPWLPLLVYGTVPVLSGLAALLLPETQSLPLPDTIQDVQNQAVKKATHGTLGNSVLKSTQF

Compound | IC50 [nM]
Cc1nn(Cc2c(Cl)cccc2Cl)c2cc(CCCC(=O)O)ccc12 [Example 133, 4-[1-(2,6-dichlorobenzyl)-3-methyl-1H-indazole-6-yl]butyric acid] | 16
Cc1nn(Cc2c(Cl)cccc2Cl)c2cc(Cc3nnn[nH]3)ccc12 [Example 134, 1-(2,6-dichlorobenzyl)-3-methyl-6-(1H-tetrazole-5-ylmethyl)-1H-indazole] | 13
Cc1nn(Cc2c(Cl)cccc2Cl)c2cc(CCc3nnn[nH]3)ccc12 [Example 135, 1-(2,6-dichlorobenzyl)-3-methyl-6-[2-(1H-tetrazole-5-yl)ethyl]-1H-indazole] | 23
Cc1nn(Cc2c(Cl)cccc2Cl)c2cc(Cc3n[nH]c(=O)o3)ccc12 [Example 136, 5-{[1-(2,6-dichlorobenzyl)-3-methyl-1H-indazole-6-yl]methyl}-1,3,4-oxadiazol-2(3H)-one] | 34
Cc1nn(Cc2c(Cl)cccc2Cl)c2cc(Cc3n[nH]c(=S)o3)ccc12 [Example 137, 5-{[1-(2,6-dichlorobenzyl)-3-methyl-1H-indazole-6-yl]methyl}-1,3,4-oxadiazol-2(3H)-thione] | 10
Cc1nn(Cc2c(Cl)cccc2Cl)c2cc(OCC(=O)O)ccc12 [Example 138, 2-[1-(2,6-dichlorobenzyl)-3-methyl-1H-indazole-6-yloxy]acetic acid] | 916
Cc1nn(Cc2c(Cl)cccc2Cl)c2cc(CS(=O)(=O)O)ccc12 [Example 139, [1-(2,6-dichlorobenzyl)-3-methyl-1H-indazole-6-yl]methanesulfonic acid] | 653
CCc1nn(Cc2c(Cl)cccc2Cl)c2cc(CC(=O)O)ccc12 [Example 140, 2-[1-(2,6-dichlorobenzyl)-3-ethyl-1H-indazole-6-yl]acetic acid] | 24
CCc1nn(Cc2c(C)cccc2C)c2cc(CC(=O)O)ccc12 [Example 142, 2-[1-(2,6-dimethylbenzyl)-3-ethyl-1H-indazole-6-yl]acetic acid] | 50
CCc1nn(Cc2c(C)cccc2C)c2cc(C(=O)O)ccc12 [Example 143, 1-(2,6-dimethylbenzyl)-3-ethyl-1H-indazole-6-carboxylic acid] | 35
CCc1nn(Cc2c(Cl)cccc2Cl)c2cc(C(=O)O)ccc12 [Example 144, 1-(2,6-dichlorobenzyl)-3-ethyl-1H-indazole-6-carboxylic acid] | 42
CCc1nn(Cc2c(Cl)cccc2Cl)c2cc(CCC(=O)O)ccc12 [Example 145, 3-[1-(2,6-dichlorobenzyl)-3-ethyl-1H-indazole-6-yl]propionic acid] | 26
CCc1nn(Cc2c(Cl)cccc2Cl)c2cc(/C=C/C(=O)O)ccc12 [Example 146, (E)-3-[1-(2,6-dichlorobenzyl)-3-ethyl-1H-indazole-6-yl]acrylic acid] | 53
Cc1cccc(C)c1Cn1nc(C(C)C)c2ccc(CC(=O)O)cc21 [Example 147, 2-[1-(2,6-dimethylbenzyl)-3-isopropyl-1H-indazole-6-yl]acetic acid] | 76
O=C(O)Cc1ccc2c(C3CC3)nn(Cc3c(Cl)cccc3Cl)c2c1 [Example 148, 2-[3-cyclopropyl-1-(2,6-dichlorobenzyl)-1H-indazole-6-yl]acetic acid] | 49
Cc1cccc(C)c1Cn1nc(Cl)c2ccc(C(=O)O)cc21 [Example 149, 3-chloro-1-(2,6-dimethylbenzyl)-1H-indazole-6-carboxylic acid] | 53
N#Cc1nn(Cc2c(Cl)cccc2Cl)c2cc(C(=O)O)ccc12 [Example 150, 3-cyano-1-(2,6-dichlorobenzyl)-1H-indazole-6-carboxylic acid] | 295
Cc1nn(Cc2c(Cl)cccc2Cl)c2nc(Cc3nnn[nH]3)ccc12 [Example 152, 1-(2,6-dichlorobenzyl)-3-methyl-6-(1H-tetrazole-5-ylmethyl)-1H-pyrazolo[3,4-b]pyridine] | 184

Compound | IC50 [nM]
Cc1nn(Cc2c(Cl)cccc2Cl)c2cc(C(=O)O)cnc12 [Example 153, 1-(2,6-dichlorobenzyl)-3-methyl-1H-pyrazolo[4,3-b]pyridine-6-carboxylic acid] | 361
Cc1nn(Cc2c(Cl)cccc2Cl)c2cc(-c3nnn[nH]3)cnc12 [Example 156, 1-(2,6-dichlorobenzyl)-3-methyl-6-(1H-tetrazole-5-yl)-1H-pyrazolo[4,3-b]pyridine] | 438
Cc1nn(Cc2cccc(Cl)c2Cl)c2cc(-c3nnn[nH]3)cnc12 [Example 158, 1-(2,3-dichlorobenzyl)-3-methyl-6-(1H-tetrazole-5-yl)-1H-pyrazolo[4,3-b]pyridine] | 292
Cc1cccc(Cl)c1Cn1nc(C)c2ncc(-c3nnn[nH]3)cc21 [Example 160, 1-(2-chloro-6-methylbenzyl)-3-methyl-6-(1H-tetrazole-5-yl)-1H-pyrazolo[4,3-b]pyridine] | 124
Cc1ccc(C)c(Cn2nc(C)c3ncc(-c4nnn[nH]4)cc32)c1 [Example 163, 1-(2,5-dimethylbenzyl)-3-methyl-6-(1H-tetrazole-5-yl)-1H-pyrazolo[4,3-b]pyridine] | 113
Cc1nn(Cc2c(Cl)cccc2C2CC2)c2cc(-c3nnn[nH]3)cnc12 [Example 164, 1-(2-chloro-6-cyclopropylbenzyl)-3-methyl-6-(1H-tetrazole-5-yl)-1H-pyrazolo[4,3-b]pyridine] | 55
CCc1nn(Cc2c(Cl)cccc2Cl)c2cc(C(=O)O)cnc12 [Example 167, 1-(2,6-dichlorobenzyl)-3-ethyl-1H-pyrazolo[4,3-b]pyridine-6-carboxylic acid] | 80
CCc1nn(Cc2c(C)cccc2Cl)c2cc(C(=O)O)cnc12 [Example 170, 1-(2-chloro-6-methylbenzyl)-3-ethyl-1H-pyrazolo[4,3-b]pyridine-6-carboxylic acid] | 80
CCc1nn(Cc2c(Cl)cccc2Cl)c2cc(-c3nnn[nH]3)cnc12 [Example 171, 1-(2,6-dichlorobenzyl)-3-ethyl-6-(1H-tetrazole-5-yl)-1H-pyrazolo[4,3-b]pyridine] | 52
O=C(O)c1cnc2c(Cl)nn(Cc3c(Cl)cccc3Cl)c2c1 [Example 172, 3-chloro-1-(2,6-dichlorobenzyl)-1H-pyrazolo[4,3-b]pyridine-6-carboxylic acid] | 162
Cc1cccc(Cl)c1Cn1nc(Cl)c2ncc(C(=O)O)cc21 [Example 174, 3-chloro-1-(2-chloro-6-methylbenzyl)-1H-pyrazolo[4,3-b]pyridine-6-carboxylic acid] | 148
Clc1cccc(Cl)c1Cn1nc(Cl)c2ncc(-c3nnn[nH]3)cc21 [Example 175, 3-chloro-1-(2,6-dichlorobenzyl)-6-(1H-tetrazole-5-yl)-1H-pyrazolo[4,3-b]pyridine] | 163
Cc1cccc(Cl)c1Cn1nc(Cl)c2ncc(-c3nnn[nH]3)cc21 [Example 177, 3-chloro-1-(2-chloro-6-methylbenzyl)-6-(1H-tetrazole-5-yl)-1H-pyrazolo[4,3-b]pyridine] | 104
CCc1nn(Cc2c(Cl)cccc2Cl)c2cc(-c3nnn[nH]3)ccc12 [Example 182, 1-(2,6-dichlorobenzyl)-3-ethyl-6-(1H-tetrazole-5-yl)-1H-indazole] | 52
Cc1nn(Cc2c(Cl)cccc2Cl)c2cc(C(F)(F)C(=O)O)ccc12 [Example 183, [1-(2,6-dichlorobenzyl)-3-methyl-1H-indazole-6-yl]difluoroacetic acid] | 15
Cc1nn(Cc2c(Cl)cccc2C2CC2)c2cc(CCC(=O)O)ccc12 [Example 185, 3-[1-(2-chloro-6-cyclopropylbenzyl)-3-methyl-1H-indazole-6-yl]propionic acid] | 17
Cc1cccc(C)c1Cn1c(=O)n(C(C)C)c2ccc(C(=O)O)cc21 [Example 186, 3-(2,6-dimethylbenzyl)-1-isopropyl-2-oxo-2,3-dihydro-1H-benzimidazole-5-carboxylic acid] | 165
